These results are taken from US9321764B2, “Dihydro-pyrrolopyridinone inhibitors” (AbbVie Inc., priority 2013, dated 2016).

One assay has as its target T1, BRD4 (BDI_K57-E168) (Homo sapiens, UniProt O60885).
T1 construct: BD1: amino acids K57-E168; made in house
Kind of assay: TR-FRET bromodomain binding assay, first bromodomain of BRD4. As to conditions: His-tagged BD1, 100 nM Alexa647 probe; TR-FRET protocol A-E given per row. A digest of the protocol:
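His-tagged BRD4 BD1 (K57-E168), 8 nM, with 1 nM Eu-anti-His antibody and 100 nM Alexa647-labelled BET-inhibitor probe in pH 6.0 phosphate buffer, 2% DMSO. TR-FRET read after 1 h at room temperature. IC50 from 4-parameter fit, converted to Ki using probe Kd and concentration.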

The target in the next assay is T2, BRD4 (BDII_E352-M457) (Homo sapiens, UniProt O60885).
T2 construct: proliferation; Protocol; made in house
Description: TR-FRET bromodomain binding assay, second bromodomain of BRD4. The conditions noted are these: His-tagged BD2, 30 nM Alexa647 probe; TR-FRET protocol A-E given per row. A digest of the protocol:
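His-tagged BRD4 BD2 ([…]) competed against an Alexa647-labelled BET-inhibitor probe in TR-FRET. Buffer was 20 mM sodium phosphate pH 6.0, 50 mM NaCl, 1 mM EDTA, 0.01% Triton X-100, 1 mM DTT, with method D DMSO series of 2.5 mM–800 nM (stock range). IC50 from 4-parameter fit, Ki from probe Kd and concentration.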

Assay [1] relates to breast cancer cell line MX-1. Kind of assay: MX-1 cell line proliferation assay. It counts as cell-based. As to conditions: Homo sapiens, MX1, 72 h, MX-1 cells, 3-day proliferation assay, Cell Titer Glo; read-out: Cellular proliferation EC50. Put shortly: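 Cells seeded at 5000/well in RPMI 1640 with 10% FBS, allowed to adhere overnight at 37 °C, then exposed to compound at final 0.0001–3 μM for 3 days. Viability read by Cell Titer Glo luminescence, normalized to DMSO controls; EC50 from sigmoidal curve fit.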

As to `Cn1cc(-c2cc(CNS(=O)(=O)CC(F)(F)F)ccc2Oc2ccc(F)cc2F)c2cc[nH]c(=O)c21` [Example 135, N-[4-(2,4-difluorophenoxy)-3-(1-methyl-7-oxo-6,7-dihydro-1H-pyrrolo[2,3-c]pyridin-3-yl)benzyl]-2,2,2-trifluoroethanesulfonamide], the values for the Ki on BRD4 (BDI_K57-E168) and on BRD4 (BDII_E352-M457) were 27 nM and 109 nM, respectively. The EC50 in assay [1] was determined as 388 nM.

For the compound `Cn1cc(-c2cc(S(C)(=O)=O)ccc2Oc2ccc(F)c(F)c2)c2cc[nH]c(=O)c21` [Example 19, 3-[2-(3,4-difluorophenoxy)-5-(methylsulfonyl)phenyl]-1-methyl-1,6-dihydro-7H-pyrrolo[2,3-c]pyridin-7-one], the results for the Ki at BRD4 (BDI_K57-E168) and at BRD4 (BDII_E352-M457) were 16 nM and 80 nM, respectively. Further, the EC50 in assay [1] stood at 176 nM.

For the compound `CCS(=O)(=O)Nc1ccc(Oc2ccc(F)cc2F)c(-c2cn(C)c3c(=O)[nH]c(C(=O)N4CCCC4)cc23)c1` [Example 193, N-{4-(2,4-difluorophenoxy)-3-[1-methyl-7-oxo-5-(pyrrolidin-1-ylcarbonyl)-6,7-dihydro-1H-pyrrolo[2,3-c]pyridin-3-yl]phenyl}ethanesulfonamide], the Ki turned out to be 4.3 nM at BRD4 (BDI_K57-E168) and 41.3 nM on BRD4 (BDII_E352-M457). Besides, the EC50 in assay [1] came to 111 nM.

Consider `Cn1cc(-c2cc(CNS(=O)(=O)Cc3ccc(Cl)cc3)ccc2Oc2ccc(F)cc2F)c2cc[nH]c(=O)c21` [Example 131, 1-(4-chlorophenyl)-N-[4-(2,4-difluorophenoxy)-3-(1-methyl-7-oxo-6,7-dihydro-1H-pyrrolo[2,3-c]pyridin-3-yl)benzyl]methanesulfonamide], for which the inhibition constant (Ki) at BRD4 (BDI_K57-E168) was 281 nM; at BRD4 (BDII_E352-M457), 1250 nM. The EC50 in assay [1] worked out at 1400 nM.

Consider `Cn1cc(-c2cc(S(N)(=O)=O)ccc2Oc2ccc(F)cc2F)c2cc[nH]c(=O)c21` [Example 51, 4-(2,4-difluorophenoxy)-3-(1-methyl-7-oxo-6,7-dihydro-1H-pyrrolo[2,3-c]pyridin-3-yl)benzenesulfonamide], for which the Ki on BRD4 (BDI_K57-E168) was determined as 47 nM; on BRD4 (BDII_E352-M457) it was 62 nM. For the same compound, the EC50 in assay [1] amounted to 201 nM.

For `Cn1cc(-c2cc(S(C)(=O)=O)ccc2OCC2CC2(F)F)c2cc[nH]c(=O)c21` (stereo not drawn) [Example 42, 3-{2-[(2,2-difluorocyclopropyl)methoxy]-5-(methylsulfonyl)phenyl}-1-methyl-1,6-dihydro-7H-pyrrolo[2,3-c]pyridin-7-one], the Ki at BRD4 (BDI_K57-E168) amounted to 13 nM; at BRD4 (BDII_E352-M457), 79 nM. Further, the EC50 in assay [1] worked out at 221 nM.

For the compound `Cn1cc(-c2cc(S(C)(=O)=O)ccc2OCCC(C)(C)C)c2cc[nH]c(=O)c21` [Example 40, 3-[2-(3,3-dimethylbutoxy)-5-(methylsulfonyl)phenyl]-1-methyl-1,6-dihydro-7H-pyrrolo[2,3-c]pyridin-7-one], the figures for the Ki at BRD4 (BDI_K57-E168) and at BRD4 (BDII_E352-M457) were 23 nM and 64 nM, respectively. In addition, in assay [1], the EC50 amounted to 87 nM.

`Cn1cc(-c2cc(CS(=O)(=O)NC3CCCCC3)ccc2Oc2ccc(F)cc2F)c2cc[nH]c(=O)c21` [Example 102, N-cyclohexyl-1-[4-(2,4-difluorophenoxy)-3-(1-methyl-7-oxo-6,7-dihydro-1H-pyrrolo[2,3-c]pyridin-3-yl)phenyl]methanesulfonamide]: the inhibition constant Ki on BRD4 (BDI_K57-E168) is 95 nM; on BRD4 (BDII_E352-M457) it was 81 nM. Besides, the EC50 in assay [1] was determined as 739 nM.

With `Cn1cc(-c2cc(S(C)(=O)=O)ccc2OC2CCCOC2)c2cc[nH]c(=O)c21` (stereo not drawn) [Example 26, 1-methyl-3-[5-(methylsulfonyl)-2-(tetrahydro-2H-pyran-3-yloxy)phenyl]-1,6-dihydro-7H-pyrrolo[2,3-c]pyridin-7-one], the Ki at BRD4 (BDI_K57-E168) amounted to 7 nM; on BRD4 (BDII_E352-M457) it was 60 nM. Moreover, in assay [1], the EC50 worked out at 123 nM.

For the compound `CCS(=O)(=O)c1ccc(Oc2ccc(Cl)cc2)c(-c2cn(C)c3c(=O)[nH]ccc23)c1` [Example 48, 3-[2-(4-chlorophenoxy)-5-(ethylsulfonyl)phenyl]-1-methyl-1,6-dihydro-7H-pyrrolo[2,3-c]pyridin-7-one], the inhibitory constant (Ki) at BRD4 (BDI_K57-E168) came out at 14 nM; on BRD4 (BDII_E352-M457), 40 nM. For the same compound, in assay [1], the EC50 is 114 nM.

For `Cn1cc(-c2cc(S(C)(=O)=O)ccc2O[C@H]2CC[C@@H](O)CC2)c2cc[nH]c(=O)c21` [Example 33, 3-{2-[(cis-4-hydroxycyclohexyl)oxy]-5-(methylsulfonyl)phenyl}-1-methyl-1,6-dihydro-7H-pyrrolo[2,3-c]pyridin-7-one], the Ki at BRD4 (BDI_K57-E168) was found to be 34 nM; on BRD4 (BDII_E352-M457), 274 nM. For the same compound, in assay [1], the EC50 came out at 716 nM.

With `CCS(=O)(=O)Nc1ccc(O[C@H]2CC[C@H](OC)CC2)c(-c2cn(C)c3c(=O)[nH]ccc23)c1` [Example 6, N-{4-[(trans-4-methoxycyclohexyl)oxy]-3-(1-methyl-7-oxo-6,7-dihydro-1H-pyrrolo[2,3-c]pyridin-3-yl)phenyl}ethanesulfonamide], the Ki was found to be 2.8 nM at BRD4 (BDI_K57-E168) and 57 nM on BRD4 (BDII_E352-M457). Besides, the EC50 in assay [1] came to 36 nM.

In the case of `CC(=O)N1CCC(Oc2ccc(S(C)(=O)=O)cc2-c2cn(C)c3c(=O)[nH]ccc23)CC1` [Example 67, 3-{2-[(1-acetylpiperidin-4-yl)oxy]-5-(methylsulfonyl)phenyl}-1-methyl-1,6-dihydro-7H-pyrrolo[2,3-c]pyridin-7-one], the inhibitory constant (Ki) stood at 45 nM on BRD4 (BDI_K57-E168) and 1380 nM at BRD4 (BDII_E352-M457). In assay [1], the EC50 was more than 3000 nM.

`Cn1cc(-c2cc(S(C)(=O)=O)ccc2OCC2CCC(F)(F)CC2)c2cc[nH]c(=O)c21` [Example 41, 3-{2-[(4,4-difluorocyclohexyl)methoxy]-5-(methylsulfonyl)phenyl}-1-methyl-1,6-dihydro-7H-pyrrolo[2,3-c]pyridin-7-one]: the inhibition constant (Ki) at BRD4 (BDI_K57-E168) was determined as 63 nM; at BRD4 (BDII_E352-M457), 406 nM. Moreover, the EC50 in assay [1] was determined as 403 nM.

Consider `Cn1cc(-c2cc(NS(=O)(=O)Cc3ccccc3)ccc2Oc2ccc(F)cc2F)c2cc[nH]c(=O)c21` [Example 180, N-[4-(2,4-difluorophenoxy)-3-(1-methyl-7-oxo-6,7-dihydro-1H-pyrrolo[2,3-c]pyridin-3-yl)phenyl]-1-phenylmethanesulfonamide], for which the Ki on BRD4 (BDI_K57-E168) turned out to be 34.9 nM; on BRD4 (BDII_E352-M457), 59.3 nM. The EC50 in assay [1] was more than 1000 nM.

On to `Cn1cc(-c2cc(S(C)(=O)=O)ccc2Oc2ccc(F)cc2)c2cc[nH]c(=O)c21` [Example 61, 3-[2-(4-fluorophenoxy)-5-(methylsulfonyl)phenyl]-1-methyl-1,6-dihydro-7H-pyrrolo[2,3-c]pyridin-7-one], for which the inhibition constant Ki at BRD4 (BDI_K57-E168) was 18 nM; at BRD4 (BDII_E352-M457), 43 nM. Further, the EC50 in assay [1] stood at 125 nM.
